Laboratory results published in ChEMBL document CHEMBL1149498, “Uncompetitive antagonism of AMPA receptors: Mechanistic insights from studies of polyamine toxin derivatives” (J Med Chem, 2006).
pIC50, pKi: −log10 of the molar value.

Experiments:
Glutamate receptor 1 [1] = target: T1, Glutamate receptor 1 (Rattus norvegicus, UniProt P19490); assay: Antagonist activity against rat GluR1 flop expressed in Xenopus laevis oocyte assessed as inhibition of glutamate-induced current at holding potential -80 mV by two electrode voltage clamp method; type: functional
T1 sequence (P19490 whole entry): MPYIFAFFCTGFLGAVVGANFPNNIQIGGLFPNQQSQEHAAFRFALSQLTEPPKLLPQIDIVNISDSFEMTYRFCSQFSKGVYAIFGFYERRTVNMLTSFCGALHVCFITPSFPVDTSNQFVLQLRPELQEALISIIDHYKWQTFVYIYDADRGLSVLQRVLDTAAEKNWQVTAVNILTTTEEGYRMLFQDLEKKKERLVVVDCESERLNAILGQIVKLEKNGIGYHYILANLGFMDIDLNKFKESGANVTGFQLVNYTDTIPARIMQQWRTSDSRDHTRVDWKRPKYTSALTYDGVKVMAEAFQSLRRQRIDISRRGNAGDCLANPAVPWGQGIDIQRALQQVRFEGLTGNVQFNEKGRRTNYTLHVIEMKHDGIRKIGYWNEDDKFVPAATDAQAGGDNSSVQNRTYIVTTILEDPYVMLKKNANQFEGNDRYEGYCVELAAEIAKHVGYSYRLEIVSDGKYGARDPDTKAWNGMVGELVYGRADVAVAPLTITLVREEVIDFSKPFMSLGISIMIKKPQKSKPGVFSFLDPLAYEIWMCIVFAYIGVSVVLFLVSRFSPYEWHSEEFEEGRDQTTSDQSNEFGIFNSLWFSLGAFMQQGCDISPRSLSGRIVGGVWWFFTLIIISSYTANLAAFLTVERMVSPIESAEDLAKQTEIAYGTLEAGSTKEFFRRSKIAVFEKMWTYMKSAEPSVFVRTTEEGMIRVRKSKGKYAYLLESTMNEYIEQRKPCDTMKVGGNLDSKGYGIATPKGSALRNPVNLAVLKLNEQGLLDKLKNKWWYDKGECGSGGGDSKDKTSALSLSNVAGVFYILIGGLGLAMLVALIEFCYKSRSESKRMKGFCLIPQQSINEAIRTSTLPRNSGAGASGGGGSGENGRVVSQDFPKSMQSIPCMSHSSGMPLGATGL

[2] = target: T2, Glutamate receptor ionotropic, AMPA (Rattus norvegicus, UniProt P19490+P19491+P19492+P19493); assay: Antagonist activity against rat brain AMPA receptor expressed in Xenopus laevis oocyte assessed as inhibition of kainate-induced current at holding potential -80 mV by two electrode voltage clamp method; type: functional
Glutamate receptor 1 [3] = target: T1, Glutamate receptor 1; assay: Antagonist activity against rat GluR1 flop expressed in Xenopus laevis oocyte assessed as inhibition of glutamate-induced current at holding potential -100 mV by two electrode voltage clamp method; type: functional
Glutamate receptor 1 [4] = target: T1, Glutamate receptor 1; assay: Antagonist activity against rat GluR1 flop expressed in Xenopus laevis oocyte assessed as inhibition of glutamate-induced current at holding potential -60 mV by two electrode voltage clamp method; type: functional
[5] = target: T2, Glutamate receptor ionotropic, AMPA; assay: Antagonist activity against rat brain AMPA receptor expressed in Xenopus laevis oocyte assessed as inhibition of kainate-induced current by two electrode voltage clamp method at holding potential -100 mV
[6] = target: T2, Glutamate receptor ionotropic, AMPA; assay: Antagonist activity against rat brain AMPA receptor expressed in Xenopus laevis oocyte assessed as inhibition of kainate-induced current by two electrode voltage clamp method at holding potential -40 mV
[7] = target: T2, Glutamate receptor ionotropic, AMPA; assay: Antagonist activity against rat brain AMPA receptor expressed in Xenopus laevis oocyte assessed as inhibition of kainate-induced current by two electrode voltage clamp method at holding potential -60 mV

Row | SMILES | pKi (Glutamate receptor 1 [1]) | pIC50 [2] | pKi (Glutamate receptor 1 [3]) | pKi (Glutamate receptor 1 [4]) | pIC50 [5] | pIC50 [6] | pIC50 [7]
1 | CCCC(=O)N[C@@H](Cc1ccc(O)cc1)C(=O)NCCCCCCCNCCCCCCN | 6.68 | 7.35 | – | – | – | – | –
2 | CCCC(=O)N[C@@H](Cc1ccc(O)cc1)C(=O)NCCCCCNCCCCCCCCCCCCN | 6.32 | – | 7.11 | 5.51 | – | – | –
3 | CCCC(=O)N[C@@H](Cc1ccc(O)cc1)C(=O)NCCCCCCNCCCCCN | 6.33 | 6.41 | – | – | – | – | –
4 | CCCC(=O)N[C@@H](Cc1ccc(O)cc1)C(=O)NCCNCCCCCCN | 6.68 | 6.51 | – | – | – | – | –
5 | CCCC(=O)N[C@@H](Cc1ccc(O)cc1)C(=O)NCCCCCNCCN | 6.39 | 4.91 | 6.85 | 5.82 | – | – | –
6 | CCCC(=O)N[C@@H](Cc1ccc(O)cc1)C(=O)NCCCCCNCCCCN | 7.17 | 6.55 | 7.89 | 6.35 | – | – | –
7 | CCCC(=O)N[C@@H](Cc1ccc(O)cc1)C(=O)NCCCCCNCCCCCCCCCN | 6.35 | 6.10 | 7.19 | 5.30 | – | – | –
8 | CCCC(=O)N[C@@H](Cc1ccc(O)cc1)C(=O)NCCCCCCNCCCCCCN | 6.16 | 6.57 | – | – | – | – | –
9 | CCCC(=O)N[C@@H](Cc1ccc(O)cc1)C(=O)NCCCCNCCCCCCN | 7.28 | 6.49 | – | – | – | – | –
10 | CCCC(=O)N[C@@H](Cc1ccc(O)cc1)C(=O)NCCCCCNCCCCCN | 7.02 | 6.68 | 7.89 | 6.34 | – | – | –
11 | CCCC(=O)N[C@@H](Cc1ccc(O)cc1)C(=O)NCCCCCCCNCCCCN | 6.77 | 6.86 | – | – | – | – | –
12 | CCCC(=O)N[C@@H](Cc1ccc(O)cc1)C(=O)NCCCCCNCCCCCCCN | 6.96 | 6.90 | 8.00 | 5.96 | – | – | –
13 | CCCC(=O)N[C@@H](Cc1ccc(O)cc1)C(=O)NCCCCCNCCCCCCCCN | 6.48 | 6.80 | 7.43 | 5.64 | – | – | –
14 | CCCC(=O)N[C@@H](Cc1ccc(O)cc1)C(=O)NCCCCCCCCCNCCCCCCN | 7.43 | 7.07 | – | – | – | – | –
15 | CCCC(=O)N[C@@H](Cc1ccc(O)cc1)C(=O)NCCCCCCCCNCCCCCCN | 7.11 | 7.60 | – | – | – | – | –
16 | CCCC(=O)N[C@@H](Cc1ccc(O)cc1)C(=O)NCCCCNCCCCCCCN | 7.42 | 7.80 | – | – | 8.48 | 6.75 | 7.22
17 | CCCC(=O)N[C@@H](Cc1ccc(O)cc1)C(=O)NCCCCCNCCCN | 7.20 | 5.96 | 7.85 | 6.57 | – | – | –
18 | CCCC(=O)N[C@@H](Cc1ccc(O)cc1)C(=O)NCCCCCNCCCCCCN | 8.52 | 7.06 | 8.00 | 6.18 | – | – | –
19 | CCCC(=O)N[C@@H](Cc1ccc(O)cc1)C(=O)NCCCCCNCCCCCCCCCCN | 6.74 | – | 7.59 | 5.92 | – | – | –
20 | CCCC(=O)N[C@@H](Cc1ccc(O)cc1)C(=O)NCCCCCCCCNCCCN | 7.19 | 7.41 | – | – | – | – | –
21 | CCCC(=O)N[C@@H](Cc1ccc(O)cc1)C(=O)NCCCNCCCCCCN | 6.90 | 6.26 | – | – | – | – | –
22 | CCCC(=O)N[C@@H](Cc1ccc(O)cc1)C(=O)NCCCNCCCCCCCCN | 6.46 | 6.61 | – | – | – | – | –
23 | CCCC(=O)N[C@@H](Cc1ccc(O)cc1)C(=O)NCCCCCCCCCNCCN | 6.39 | 6.91 | – | – | – | – | –
